Reference: US4699926A, “Compounds useful in treating sickle cell anemia” (Merck & Co., Inc., priority 1986, dated 1987)
Where a name gives a salt, the structure may show the parent alone.

Key:
sickle hemoglobin (HbS) = target: T1, sickle hemoglobin (HbS) (Homo sapiens, UniProt P68871+P69905, E7V); assay: Solubility assay (Csat assay): solubility of deoxygenated sickle hemoglobin in the presence of drug; type: biochemical
T1 construct: from tissue
Method: One major assay for evaluating antisickling agents involves measuring their effect on increasing the concentration at which sickle hemoglobin forms a gel. This is called the solubility or Csat assay.
The solubility assay (Csat assay) measures the ability of a compound to increase solubility of sickle hemoglobin (HbS).
In order to confirm the effectiveness of these compounds in reducing the effect of sickle cell anemia, tests were performed. The materials were tested according to the assay (Csat) developed by Hofrichter et al. (J. Hofrichter, P.D. Ross and W. A. Eaton Proc. Natl. Acad. Sci. USA, 73 30-35, 1976). This assay involves deoxygenation of concentrated sickle hemoglobin with dithionite in the presence of different concentrations of the drugs being tested Samples were then sealed in quartz epr tubes under anaerobic conditions and spun at about 150,000 × g for about 21/2 hours at about 35° C. in an ultracentrifuge. This procedure pellets the polymerized HbS (sickle hemoglobin) to the bottom of the tubes and the supernatant (soluble HbS) was measured in the laboratory as the cyanmethemoglobin derivative. […] Activity is reported as a ratio of the HbS solubility with the particular drug to HbS solubility with no drug i.e. control. The higher the ratio the greater degree of activity of the drug. The numbers in parenthesis are % increase in the solubility of HbS; again the higher the number, the greater the activity of the drug. The results ofthe compound of Example 9, is shown as a representative example of the compounds of this invention.

HbS = assay: Chromatographic separation: tight covalent binding between HbS and the agent; parameters: species or system human
[1] = Tests of transport across erythrocyte membranes; type: in vitro ADME, human; conditions: red blood cell membrane

| SMILES | activation at 3000 µM (sickle hemoglobin (HbS); 3 mM, read-out: % increase in Solubility (of HbS)) | fold induction at 3000 µM (sickle hemoglobin (HbS); 3 mM, read-out: Ratio of the HbS Solubility with the Drug Compared to HbS Solubility Without Drug) | activation at 5000 µM (sickle hemoglobin (HbS); 5 mM, read-out: % increase in Solubility (of HbS)) | fold induction at 5000 µM (sickle hemoglobin (HbS); 5 mM, read-out: Ratio of the HbS Solubility with the Drug Compared to HbS Solubility Without Drug) | activation at 7000 µM (sickle hemoglobin (HbS); 7 mM, read-out: % increase in Solubility (of HbS)) | fold induction at 7000 µM (sickle hemoglobin (HbS); 7 mM, read-out: Ratio of the HbS Solubility with the Drug Compared to HbS Solubility Without Drug) | activation at 9000 µM (sickle hemoglobin (HbS); 9 mM, read-out: % increase in Solubility (of HbS)) | fold induction at 9000 µM (sickle hemoglobin (HbS); 9 mM, read-out: Ratio of the HbS Solubility with the Drug Compared to HbS Solubility Without Drug) | solubility ratio compared with other antisickling agents (in words) (sickle hemoglobin (HbS); low concentrations (5 mM), versus dichlorobenzyloxyacetic and p-bromobenzyloxyacetic acids) | covalent binding between the HbS and the therapeutic agent (in words) (HbS) | transport across erythrocyte membranes (in words) [1] |
| --- | --- | --- | --- | --- | --- | --- | --- | --- | --- | --- | --- |
| C=C(CC)C(=O)c1ccc(OCC(=O)NCC(=O)O)c(Cl)c1Cl [Example 9, N-{[2,3-Dichloro-4-(2-methylenebutyryl)phenoxy]-acetyl}glycine] | 27% | 1.11 | 36% | 1.15 | 56% | 1.22 | 82% | 1.33 |  |  |  |
| C=C(CC)C(=O)c1ccc(OCC(=O)NCC(=O)O)c(Cl)c1Cl [sodium salt of N-{([2,3-dichloro-4-(2-methylenebutyryl)-phenoxy]acetyl)}glycine] |  |  |  |  |  |  |  |  | higher solubility ratio than other antisickling agents, such as, dichlorobenzyloxyacetic and p-bromobenzyloxyacetic acids | desired tight covalent binding between the HbS and the therapeutic agent had occurred | confirmed the ability of the agent to cross the red blood cell membrane and react with hemoglobin |
